In paper PMC12347832, “Multi-Component Synthesis of New Fluorinated-Pyrrolo[3,4-b]pyridin-5-ones Containing the 4-Amino-7-chloroquinoline Moiety and In Vitro–In Silico Studies Against Human SARS-CoV-2” (International Journal of Molecular Sciences, 2025) one finds IC50, viability and plaque reduction data, which are given here for eight molecules.

In series [1] the test system is SARS-CoV-2. The series can be described thus: Plaque reduction / time-of-addition assay. It is filed as cell-based. The settings on record: for IC50: Vero E6, MOI 0.1, plaque assay.
A short description of series [2]: Cell viability assay (crystal violet). The settings on record: African green monkey.
Series [3] deals with SARS-CoV. The settings on record: cited from earlier work.
Where [4] appears, read: Severe acute respiratory syndrome coronavirus 2, Vero C1008, compound added at the time of infection (0 h), read-out: IC50 (µM) 0 h.
Where [5] appears, read: Severe acute respiratory syndrome coronavirus 2, Vero C1008, read-out: IC50 (µM) 1 h, compound added 1 h postinfection.

Each structure is given as a SMILES string. Read-outs that look alike come from different tables or passages of the source.

Consider `O=C1c2cc(N3CCOCC3)c(Cc3ccccc3)nc2C(c2cc(C(F)(F)F)cc(C(F)(F)F)c2)N1CCNc1ccnc2cc(Cl)ccc12` (stereo not drawn) [19j, 2-Benzyl-7-(3,5-bis(trifluoromethyl)phenyl)-6-(2-((7-chloroquinolin-4-yl)amino)ethyl)-3-morpholino-6,7-dihydro-5H-pyrrolo[3,4-b]pyridin-5-one], for which the half-inhibitory concentration (IC50) in series [1] (setting [4]) was 15 µM.

Take `O=C1c2cc(N3CCOCC3)c(Cc3ccccc3)nc2C(c2ccc(C(F)(F)F)cc2)N1CCNc1ccnc2cc(Cl)ccc12` (stereo not drawn) [19g, 2-Benzyl-6-(2-((7-chloroquinolin-4-yl)amino)ethyl)-3-morpholino-7-(4-(trifluoromethyl)phenyl)-6,7-dihydro-5H-pyrrolo[3,4-b]pyridin-5-one]: the IC50 in series [1] (setting [5]) came out at 6.98 µM; in series [1] (setting [4]), 7.5 µM. The molecule further came in with a viability at 48 h, 10 µM in series [2] above 80%. Consider `O=C1c2cc(N3CCOCC3)c(Cc3ccccc3)nc2C(c2ccccc2F)N1CCNc1ccnc2cc(Cl)ccc12` (stereo not drawn) [19e, 2-Benzyl-6-(2-((7-chloroquinolin-4-yl)amino)ethyl)-7-(2-fluorophenyl)-3-morpholino-6,7-dihydro-5H-pyrrolo[3,4-b]pyridin-5-one], for which the IC50 in series [1] (setting [4]) came out at 17.1 µM. `CCN(CC)c1cc2c(nc1Cc1ccccc1)C(c1ccc(F)cc1)N(CCNc1ccnc3cc(Cl)ccc13)C2=O` (stereo not drawn) [19d, 2-Benzyl-6-(2-((7-chloroquinolin-4-yl)amino)ethyl)-3-(diethylamino)-7-(4-fluorophenyl)-6,7-dihydro-5H-pyrrolo[3,4-b]pyridin-5-one]: the IC50 in series [1] (setting [4]) is 6.74 µM. Besides, the viability at 48 h, 10 µM in series [2] is above 90%. Regarding `O=C1c2cc(N3CCOCC3)c(Cc3ccccc3)nc2C(c2c(F)c(F)c(F)c(F)c2F)N1CCCNc1ccnc2cc(Cl)ccc12` (stereo not drawn) [19l, 2-Benzyl-6-(3-((7-chloroquinolin-4-yl)amino)propyl)-3-morpholino-7-(perfluorophenyl)-6,7-dihydro-5H-pyrrolo[3,4-b]pyridin-5-one], in series [1] (setting [4]), the concentration for half-maximal inhibition (IC50) worked out at 7.06 µM. For the molecule `CCN(CC)c1cc2c(nc1Cc1ccccc1)C(c1ccc(C(F)(F)F)cc1)N(CCNc1ccnc3cc(Cl)ccc13)C2=O` (stereo not drawn) [19i, 2-Benzyl-6-(2-((7-chloroquinolin-4-yl)amino)ethyl)-3-(diethylamino)-7-(4-(trifluoromethyl)phenyl)-6,7-dihydro-5H-pyrrolo[3,4-b]pyridin-5-one], the results for the IC50 in series [1] (setting [5]) and in series [1] (setting [4]) were 5.29 µM and 24 µM, respectively. For the same molecule, the plaque reduction result in series [1] (compound added 1 h postinfection) is recorded as “approximately one logarithmic unit”. In series [2], this molecule yielded a viability at 48 h, 10 µM above 90%. Turning to `CCN(CC)CCCC(C)Nc1ccnc2cc(Cl)ccc12` (stereo not drawn) [Chloroquine], the half-inhibitory concentration (IC50) in series [3] is 8.8 µM. For the molecule `O=C1c2cc(N3CCOCC3)c(Cc3ccccc3)nc2C(c2ccccc2F)N1CCCNc1ccnc2cc(Cl)ccc12` (stereo not drawn) [19f, 2-Benzyl-6-(3-((7-chloroquinolin-4-yl)amino)propyl)-7-(2-fluorophenyl)-3-morpholino-6,7-dihydro-5H-pyrrolo[3,4-b]pyridin-5-one], the IC50 in series [1] (setting [4]) stood at 9.23 µM. Moreover, the viability at 48 h, 10 µM in series [2] is above 80%.
